From patent US20240425496A1, “AZETIDINYL PYRIMIDINES AND USES THEREOF” (Aerie Pharmaceuticals, Inc., priority 2021, published 2024) come the findings set out here.

In general, IC50 refers to the point on the concentration scale where inhibition reaches its midpoint. A high value points to a need for much substance.

One test concerns the target TYK2 (Homo sapiens (Human), UniProt P29597). Put plainly: JAK kinase assay (KINASE-GLO luminescent), TYK2 enzyme. The class given is biochemical. To be noted: TYK2 enzyme 10 nM, Abl peptide substrate. The method in brief:
(§1)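 Kinase-Glo luminescence measures ATP remaining after 75 min at room temperature; ATP 2 μM in 4× stock. 11-point 1:5 dilutions, 2.5% DMSO final. Percent of DMSO control per concentration, IC50 by 4-parameter logistic fit.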
A general note: Kinase-Glo measures the ATP left after a reaction by luminescence.

For a further test, the target named is JAK1 (Homo sapiens (Human), UniProt P23458). Put plainly: JAK kinase assay (KINASE-GLO luminescent), JAK1 enzyme. The class given is biochemical. Conditions: JAK1 enzyme 10 nM, Abl peptide substrate. The method in brief: as §1
JAK1, sequence (P23458 whole entry, species assumed): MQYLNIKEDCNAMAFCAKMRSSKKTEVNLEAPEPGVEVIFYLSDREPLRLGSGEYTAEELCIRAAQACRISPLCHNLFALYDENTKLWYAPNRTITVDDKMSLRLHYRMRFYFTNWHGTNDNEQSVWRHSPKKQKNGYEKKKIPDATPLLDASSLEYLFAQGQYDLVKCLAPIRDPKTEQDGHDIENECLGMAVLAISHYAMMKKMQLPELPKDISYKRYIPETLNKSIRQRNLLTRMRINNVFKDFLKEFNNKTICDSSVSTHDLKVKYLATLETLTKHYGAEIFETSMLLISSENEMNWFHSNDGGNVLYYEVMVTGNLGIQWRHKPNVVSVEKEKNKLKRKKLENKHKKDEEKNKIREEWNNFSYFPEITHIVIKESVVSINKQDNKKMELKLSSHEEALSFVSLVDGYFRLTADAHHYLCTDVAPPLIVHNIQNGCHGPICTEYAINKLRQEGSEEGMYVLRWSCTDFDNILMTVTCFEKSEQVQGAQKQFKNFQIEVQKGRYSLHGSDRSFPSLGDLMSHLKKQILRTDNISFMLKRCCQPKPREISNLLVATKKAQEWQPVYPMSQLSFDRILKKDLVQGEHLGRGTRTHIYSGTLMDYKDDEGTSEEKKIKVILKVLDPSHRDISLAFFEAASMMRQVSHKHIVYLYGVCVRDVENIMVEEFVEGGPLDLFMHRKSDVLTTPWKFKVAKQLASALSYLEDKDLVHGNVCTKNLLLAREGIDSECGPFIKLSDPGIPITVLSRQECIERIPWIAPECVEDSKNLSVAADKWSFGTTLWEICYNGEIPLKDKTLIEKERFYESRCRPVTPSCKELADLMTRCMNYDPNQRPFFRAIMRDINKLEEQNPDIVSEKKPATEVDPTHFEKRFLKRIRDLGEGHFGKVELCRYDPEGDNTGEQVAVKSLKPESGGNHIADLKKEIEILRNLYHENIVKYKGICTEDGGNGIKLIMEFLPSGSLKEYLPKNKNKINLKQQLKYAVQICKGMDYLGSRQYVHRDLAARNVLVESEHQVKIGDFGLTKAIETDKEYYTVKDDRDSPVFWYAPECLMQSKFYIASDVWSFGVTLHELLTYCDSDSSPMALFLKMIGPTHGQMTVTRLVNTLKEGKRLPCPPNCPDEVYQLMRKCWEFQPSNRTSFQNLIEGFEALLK

TYK2, sequence (P29597 whole entry, species assumed): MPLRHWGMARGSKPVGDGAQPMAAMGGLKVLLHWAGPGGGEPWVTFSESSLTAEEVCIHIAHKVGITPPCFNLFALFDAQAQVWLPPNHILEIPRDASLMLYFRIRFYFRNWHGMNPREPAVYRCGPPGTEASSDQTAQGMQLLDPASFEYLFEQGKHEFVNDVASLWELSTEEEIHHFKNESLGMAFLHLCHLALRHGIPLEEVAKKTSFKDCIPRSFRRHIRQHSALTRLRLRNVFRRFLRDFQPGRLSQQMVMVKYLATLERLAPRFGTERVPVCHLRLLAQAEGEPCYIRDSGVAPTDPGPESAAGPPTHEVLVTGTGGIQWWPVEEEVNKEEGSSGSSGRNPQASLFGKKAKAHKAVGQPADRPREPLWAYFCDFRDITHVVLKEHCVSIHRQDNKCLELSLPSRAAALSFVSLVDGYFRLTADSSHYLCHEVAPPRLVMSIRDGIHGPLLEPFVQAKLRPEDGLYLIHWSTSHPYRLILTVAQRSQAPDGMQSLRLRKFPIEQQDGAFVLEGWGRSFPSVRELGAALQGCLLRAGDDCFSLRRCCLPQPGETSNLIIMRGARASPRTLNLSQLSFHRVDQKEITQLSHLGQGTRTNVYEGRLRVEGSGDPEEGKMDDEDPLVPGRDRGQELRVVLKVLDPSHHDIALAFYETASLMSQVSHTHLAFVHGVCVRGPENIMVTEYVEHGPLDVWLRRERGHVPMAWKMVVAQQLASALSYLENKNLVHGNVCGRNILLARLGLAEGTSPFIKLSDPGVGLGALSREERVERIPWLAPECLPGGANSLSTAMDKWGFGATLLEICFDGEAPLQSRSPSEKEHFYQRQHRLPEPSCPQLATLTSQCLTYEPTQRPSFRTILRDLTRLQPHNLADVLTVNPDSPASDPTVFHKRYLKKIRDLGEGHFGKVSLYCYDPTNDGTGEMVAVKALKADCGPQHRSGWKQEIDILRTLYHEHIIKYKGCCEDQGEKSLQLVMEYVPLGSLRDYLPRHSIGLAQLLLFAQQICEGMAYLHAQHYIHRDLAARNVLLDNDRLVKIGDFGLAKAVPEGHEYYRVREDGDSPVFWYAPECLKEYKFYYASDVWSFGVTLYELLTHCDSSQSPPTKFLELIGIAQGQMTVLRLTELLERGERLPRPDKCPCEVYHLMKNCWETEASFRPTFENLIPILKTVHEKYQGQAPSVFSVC

As for `Cc1cnc(Nc2cnn(C)c2)nc1N1CC(O)(CC2CC2)C1` [E175-B], the IC50 on TYK2 and on JAK1 was below 0.2 µM each time.
For `Cc1cnc(Nc2cnn(C3CC3)c2)nc1N1CC(CC#N)(N2CCN3C[C@H](F)C[C@H]3C2)C1` [E175-C], the half-maximal inhibitory concentration (IC50) against TYK2 and on JAK1 was below 0.01 µM each time.
Turning to `COCCN1CCN(C2(CC#N)CN(c3nc(Nc4cnn(CCOC)c4)ncc3C)C2)CC1` [E175-D], the IC50 on TYK2 and at JAK1 was below 0.12 µM throughout.
For `COCCN1CCN(C2(CC#N)CN(c3nc(Nc4cnn(CCOC)c4)ncc3C)C2)CC1` [E175-E], the IC50 against TYK2 and against JAK1 was below 0.2 µM in each case.
In the case of `Cc1cnc(Nc2cnn(C)c2)nc1N1CC(CC#N)(N2CCN3C[C@H](C)C[C@H]3C2)C1` [E175a], the IC50 against TYK2 and at JAK1 was below 0.05 µM each time.
For the compound `Cc1cnc(Nc2ccc(N3CCN(C)CC3)cc2)nc1N1CC(CC#N)(N(C)C2CC2)C1` [E213], the concentration for half-maximal inhibition (IC50) was below 0.01 µM against TYK2 and below 0.05 µM at JAK1.
The matching figures for `Cc1cnc(Nc2ccc3c(c2)CN(C)C3)nc1N1CC(CC(F)F)(C2CC2)C1` [E216-A]: below 0.01 µM and below 0.01 µM.
Take `Cc1cnc(Nc2ccc(S(C)(=O)=O)cc2)nc1N1CC(CC(F)F)(C2CC2)C1` [E216-B]: the IC50 on TYK2 and at JAK1 was below 0.01 µM in each case.
As to `Cc1cnc(Nc2ccc3c(c2)CN(C)C3)nc1N1CC(CC#N)(N(C)C2CC2)C1` [E216-C], the IC50 against TYK2 and against JAK1 was below 0.01 µM in each case.
Take `Cc1cnc(Nc2ccc3c(c2)CN(C)C3)nc1N1CC(CC#N)(N2CCC(F)CC2)C1` [E216-E]: the IC50 on TYK2 and at JAK1 was below 0.01 µM each time.
As for `Cc1cnc(Nc2ccccc2)nc1N1CC(CC#N)(N2CCN3CCCC[C@H]3C2)C1` [E216-F], the half-inhibitory concentration (IC50) against TYK2 is below 0.01 µM; against JAK1, below 0.02 µM.
As for `Cc1cnc(Nc2ccc3c(c2)CN(C)C3)nc1N1CC(CC#N)(N2CCC3(CC2)COC3)C1` [E216-G], the IC50 against TYK2 and at JAK1 was below 0.01 µM each time.
Consider `Cc1cnc(Nc2ccc(N3CCOCC3)c(F)c2)nc1N1CC(CCC#N)C1` [E216-K], for which the IC50 at TYK2 was below 0.01 µM; at JAK1, below 0.05 µM.
The matching figures for `Cc1cnc(Nc2ccc(C3COC3)cc2)nc1N1CC(CC#N)(N2CCN(C)CC2)C1` [E216-L]: below 0.02 µM and below 0.05 µM.
The matching figures for `Cc1cnc(Nc2ccccc2)nc1N1CC(CC#N)(N2CCN(C)CC2)C1` [E216-N]: below 0.03 µM and below 0.07 µM.
Consider `Cc1cnc(Nc2ccc3c(c2)B(O)OC3)nc1N1CC(CC#N)(N2CCN3C[C@H](F)C[C@H]3C2)C1` [E216-O], for which the IC50 against TYK2 was below 0.03 µM; at JAK1 it was below 0.12 µM.
With `Cc1cnc(Nc2ccc(N3CCOCC3)nc2)nc1N1CC(CCC#N)C1` [E216-S], the IC50 at TYK2 and at JAK1 was below 0.1 µM throughout.
For the compound `Cc1cnc(Nc2cccnc2)nc1N1CC(CC#N)(N2CCN3CCCC[C@H]3C2)C1` [E216-T], the IC50 against TYK2 and at JAK1 was below 0.05 µM in each case.
On to `Cc1cnc(Nc2ccccc2)nc1N1CC(CC#N)(N2CCN(C)CC2)C1` [E216-V], for which the 50% inhibitory concentration (IC50) against TYK2 is below 0.05 µM; at JAK1, below 0.1 µM.
The matching figures for `Cc1cnc(Nc2ccc3c(c2)CN(C)C3)nc1N1CC(CC#N)(N2CCN3C[C@H](F)C[C@H]3C2)C1` [E216]: below 0.01 µM and below 0.01 µM.
Turning to `Cc1cnc(Nc2cnn(C)c2)nc1C1CC(C)(NC(=O)[C@@H]2CC2(F)F)C1` (some centres unmarked) [E279], the 50% inhibitory concentration (IC50) on TYK2 is below 0.01 µM; against JAK1 it was below 0.005 µM.
The matching figures for `Cc1cc(Nc2ncc(C)c(N3CC(C)(CNC(=O)C4CN(C)C4)C3)n2)sn1` [E280]: below 0.4 µM and below 0.4 µM.
On to `Cc1cc(Nc2ncc(C)c(N3CC(CC#N)(NC(=O)Cc4cccnc4)C3)n2)sn1` [E281], for which the half-maximal inhibitory concentration (IC50) against TYK2 is below 0.05 µM; against JAK1, below 0.1 µM.
The matching figures for `Cc1cc(Nc2ncc(C)c(N3CC(C)(CNC(=O)C4CN(C(=O)OC(C)(C)C)CC4(F)F)C3)n2)sn1` (centres unmarked) [E283]: below 0.1 µM and below 0.1 µM.
The matching figures for `Cc1cc(Nc2ncc(C)c(N3CC(C)(CNC(=O)C4CCN(C(=O)OC(C)(C)C)CC4(F)F)C3)n2)sn1` (centres unmarked) [E284]: below 0.2 µM and below 0.1 µM.
The matching figures for `Cc1cc(Nc2ncc(C)c(N3CC(C)(CNC(=O)C4CCNCC4(F)F)C3)n2)sn1` (centres unmarked) [E285]: below 0.15 µM and below 0.1 µM.
For the compound `Cc1cc(Nc2ncc(C)c(N3CC(C)(CNC(=O)C4CNCC4(F)F)C3)n2)sn1` (centres unmarked) [E286], the IC50 on TYK2 and against JAK1 was below 0.05 µM in each case.
`COc1ccc(CNC2(CC#N)CN(c3nc(Nc4cc(C)ns4)ncc3C)C2)cc1` [E288, 2-(3-((4-methoxybenzyl)amino)-1-(5-methyl-2-((3-methylisothiazol-5-yl)amino)pyrimidin-4-yl)azetidin-3-yl)acetonitrile]: the IC50 against TYK2 and against JAK1 was below 0.05 µM each time.
On to `Cc1cc(Nc2ncc(C)c(N3CC(N)(CC#N)C3)n2)sn1` [E289, 2-(3-amino-1-(5-methyl-2-((3-methylisothiazol-5-yl)amino)pyrimidin-4-yl)azetidin-3-yl)acetonitrile], for which the IC50 on TYK2 is below 0.1 µM; against JAK1, below 0.15 µM.
The matching figures for `Cc1cc(Nc2ncc(C)c(N3CC(CC#N)(NC(=O)[C@@H]4CC4(F)F)C3)n2)sn1` [E290, (S)—N-(3-(cyanomethyl)-1-(5-methyl-2-((3-methylisothiazol-5-yl)amino)pyrimidin-4-yl)azetidin-3-yl)-2,2-difluorocyclopropane-1-carboxamide]: below 0.01 µM and below 0.01 µM.
For the compound `Cc1cc(Nc2ncc(C)c(N3CC(CC#N)(NS(C)(=O)=O)C3)n2)sn1` [E291, N-(3-(cyanomethyl)-1-(5-methyl-2-((3-methylisothiazol-5-yl)amino)pyrimidin-4-yl)azetidin-3-yl)methanesulfonamide], the half-inhibitory concentration (IC50) was below 0.01 µM against TYK2 and below 0.02 µM against JAK1.
The matching figures for `Cc1cc(N(c2ncc(C)c(N3CC(CC#N)(NS(C)(=O)=O)C3)n2)S(C)(=O)=O)sn1` [E292]: below 1 µM and below 5 µM.
The matching figures for `Cc1cc(Nc2ncc(C)c(N3CC(CC#N)(NC(=O)NCC(F)(F)F)C3)n2)sn1` [E293, 1-(3-(cyanomethyl)-1-(5-methyl-2-((3-methylisothiazol-5-yl)amino)pyrimidin-4-yl)azetidin-3-yl)-3-(2,2,2-trifluoroethyl)urea]: below 0.02 µM and below 0.02 µM.
The matching figures for `Cc1cc(Nc2ncc(C)c(N3CC(CC#N)(NCc4ccc(F)cc4F)C3)n2)sn1` [E295, 2-(3-((2,4-difluorobenzyl)amino)-1-(5-methyl-2-((3-methylisothiazol-5-yl)amino)pyrimidin-4-yl)azetidin-3-yl)acetonitrile]: below 0.01 µM and below 0.02 µM.
Regarding `Cc1cc(Nc2ncc(C)c(N3CC(CC#N)(NC(=O)c4ccccn4)C3)n2)sn1` [E296], the IC50 at TYK2 and against JAK1 was below 0.02 µM in each case.
In the case of `Cc1cc(Nc2ncc(C)c(N3CC(CC#N)(NC(=O)C4CCCC4)C3)n2)sn1` [E297], the IC50 is below 0.02 µM at TYK2 and below 0.05 µM on JAK1.
The matching figures for `Cc1cc(Nc2ncc(C)c(N3CC(CC#N)(NC(=O)c4ccncc4)C3)n2)sn1` [E298]: below 0.05 µM and below 0.05 µM.
